# How the values were obtained:
# [1] = tested on: NCI-H28 (human malignant mesothelioma cell); experiment: Cell viability assay (MTT), NCI-H28; type: cell-based; conditions: NCI-H28, 1, 10, 100 μM, 24 hr or 48 hr; FIG. 3B
# Description: (§1) NCI-H28 which is a cell line of human malignant pleural mesothelioma and Met5A which is a cell line of human non-malignant mesothelioma were used. These cells were purchased from American Type Culture Collection (Manassas, Va., USA). The cells were cultured in Roswell Park Memorial Institute (RPMI)-1640 medium added with 0.003% (w/v) L-glutamine. The cells were incubated in a medium added with 10% (v/v) heat-inactivated bovine serum, penicillin (final concentration, 100 U/ml) and streptomycin (final concentration, 0.1 mg/ml) in a humid environment under 5% CO2 and 95% air at 37° C.
# (§2) The cell viability was evaluated according to previous report (Nogi Y, et al., Cell Physiol Biochem 2012; 30: 61-74.) by using 3-(4,5-dimethyl-2-thiazolyl)-2,5-diphenyl-2H-tetrazolium bromide (MTT). The measurement was performed by treating Met5A (human non-malignant mesothelioma cell) and NCI-H28 (human malignant mesothelioma cell) for 24 hr or 48 hr while changing the concentration of DPPE to 0, 1 μM, 10 μM and 100 μM.
# Human PTP1B (GST fused) = molecular target: T1, Human PTP1B (GST fused) (Homo sapiens, UniProt P18031); experiment: Assay of PTP1B activity under cell-free conditions (p-NPP substrate); conditions: 100 μM, preincubated 37° C. 30 min, p-NPP 10 mM 60 min, FIG. 1B
# T1 sequence (P18031 1-435): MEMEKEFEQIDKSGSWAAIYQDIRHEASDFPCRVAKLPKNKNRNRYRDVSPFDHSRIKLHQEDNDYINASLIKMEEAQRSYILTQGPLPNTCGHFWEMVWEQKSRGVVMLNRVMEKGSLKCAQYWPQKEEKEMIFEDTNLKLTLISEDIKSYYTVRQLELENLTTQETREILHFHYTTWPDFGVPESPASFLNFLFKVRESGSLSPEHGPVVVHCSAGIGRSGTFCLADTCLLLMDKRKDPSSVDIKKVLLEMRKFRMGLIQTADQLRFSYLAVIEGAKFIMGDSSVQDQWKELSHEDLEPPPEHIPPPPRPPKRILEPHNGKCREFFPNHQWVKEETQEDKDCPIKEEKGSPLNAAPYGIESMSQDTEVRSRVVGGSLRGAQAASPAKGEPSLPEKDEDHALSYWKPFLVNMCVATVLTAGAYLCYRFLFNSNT
# Description: (§4) Human recombinant PP2A was purchased from Millipore (Billerica, Mass., USA). Human PTP1B was cloned to pGEX-6P-3 vector having a GST tag on the NH2 terminal, and expressed in competent E. coli 3L21 (DE3) suitable for transformation and protein expression. GST fused PTP1B was affinity-purified using glutathione sepharose 4B (GE Healthcare Bio-Science KK, Tokyo, Japan). They were reacted with p-nitrophenylphosphate (p-NPP) (Sigma, St. Louis, Mo., USA) as a substrate, and each phosphatase activity was measured. PP2A (0.2 U/well) or PTP1B (1 mg/well) was preincubated in a reaction medium at 37° C. for 30 min. in the presence and absence of a phosphatase inhibitor (okadaic acid; 2 nM, sodium vanadate; 1 μM) and, phosphatidylethanolamine (DAPE, DLPE, DOPE, DPPE; 100 μM, all obtained from Avanti Polar Lipids, Inc. (Alabaster, Ala., USA)). • reaction medium for PP2A: 50 mM Tris-HCl, 0.1 mM EGTA, 0.1% (v/v) 2-mercaptoethanol, pH 7.0 • reaction medium for PTP1B: 50 mM HEPES, 1 mM EDTA, 50 mM NaCl, 1 mM dithiothreitol, pH 7.2
# (§5) Then, p-NPP (0.5 mM for PP2A, 10 mM for PTP1B) was added to the reaction medium and incubation was continued for 60 min. The reaction was discontinued by adding 0.1N NaOH. Dephosphorylated p-NPP, namely, p-NP, was quantified at absorbance 405 nm by using SpectraMax PLUS384 (Molecular Devices, Sunnyvale, Calif., USA).
# [2] = tested on: Met5A (human non-malignant mesothelioma cell); experiment: TUNEL staining, Met5A; type: cell-based; conditions: 30 μM and 100 μM, 48 hr, FIG. 4
# Description: (§3) NCI-H28 which is a cell line of human malignant pleural mesothelioma and […] which is a cell line of human non-malignant mesothelioma were used. These cells were purchased from American Type Culture Collection (Manassas, Va., USA). The cells were cultured in Roswell Park Memorial Institute (RPMI)-1640 medium added with 0.003% (w/v) L-glutamine. The cells were incubated in a medium added with 10% (v/v) heat-inactivated bovine serum, penicillin (final concentration, 100 U/ml) and streptomycin (final concentration, 0.1 mg/ml) in a humid environment under 5% CO2 and 95% air at 37° C. To detect in situ DNA fragmentation to be the index of apoptosis, TUNEL staining was performed using In Situ Apoptosis Detection Kit (Takara Bio; Otsu, Japan). The cells fixed and membrane-permeabilized were incubated with terminal deoxynucleotidyl transferase and fluorescein isothiocyanate (FITC)-deoxyuridinetriphosphate at 37° C. for 90 min. FITC signal was visualized by a confocal laser microscope (LSM 510; Carl Zeiss Co., Ltd., Oberkochen, Germany). The cells used were […] (human non-malignant mesothelioma cell) and NCI-H28 (human malignant mesothelioma cell), after a treatment for 48 hr by changing the concentration of DPPE to 0, 30 μM and 100 μM.
# Human recombinant PP2A = experiment: Assay of PP2A activity under cell-free conditions (p-NPP substrate); conditions: 100 μM, preincubated 37° C. 30 min, p-NPP 0.5 mM 60 min, FIG. 1A
# Description: as §4, §5
# [3] = tested on: NCI-H28 (human malignant mesothelioma cell); experiment: TUNEL staining, NCI-H28; type: cell-based; conditions: NCI-H28, 30 μM and 100 μM, 48 hr; FIG. 4
# Description: as §3
# [4] = tested on: Met5A (human non-malignant mesothelioma cell); experiment: Cell viability assay (MTT), Met5A; type: cell-based; conditions: Met5A, 1, 10, 100 μM, 24 hr or 48 hr; FIG. 3A
# Description: as §1, §2
structure (smiles),measurement,setting,value
"CCCCCC/C=C\CCCCCCCC(=O)OC[C@H](COP(=O)(O)OCCN)OC(=O)CCCCCCC/C=C\CCCCCC [DPPE, 1,2-dipalmitoleoyl-sn-glycero-3-phosphoethanolamine]",cell survival rate (MTT),[1],induces concentration-dependent cell death in the malignant mesothelioma cell
same,PTP1B activation enhancing action (phosphatase activity relative to control),Human PTP1B (GST fused),PTP1B activation enhancing action
same,apoptosis (TUNEL-stained cells relative to total cells),[2],does not induce apoptosis of the non-malignant mesothelioma cell
same,PP2A activation enhancing action (phosphatase activity relative to control),Human recombinant PP2A,strong PP2A activation enhancing action
same,apoptosis (TUNEL-stained cells relative to total cells),[3],induces apoptosis of the malignant mesothelioma cell
same,cell survival rate (MTT),[4],almost uninfluential on the non-malignant mesothelioma cell

# Source: US20170027968A1, “ANTI-CANCER AGENT” (KTN BIOTEC, INC., priority 2013, published 2017)
